Where two headings read alike, the source gives them in different places.
Assays:
[1] = Acute toxicity assessment in ICR mice, single i.v. dose; format: in vivo; details: both sexes, ICR, mouse, in vivo, iv, Bliss method
Method: (§1) The acute toxicity of acacetin prodrug was assessed in ICR mice (weighing 18~22 g) as described in Supplemental Materials, and the LD50 was calculated by the Bliss method. […]
(§2) Acute toxicity assessment of acacetin prodrug
(§3) The acute toxicity of acacetin prodrug was assessed in ICR mice (weighing 18~22 g) provided by the Laboratory Animal Center of Hong Kong University (Hong Kong, China) and maintained under controlled temperature conditions (23 °C), with a constant 12 h light-dark cycle and free access to food and water. Sixty ICR mice (male, 30; female, 30) were stratified by weight and randomly assigned to six groups: (n = 10 in each group, 5 male and 5 female).
(§4) Acacetin prodrug dissolved in 5% glucose was intravenously administered at 900, 810, 765, 720, 630 and 540 mg/kg through tail vein, respectively. The animals were closely observed for symptoms and mortality in 24 h. All of the surviving animals were euthanized at the end of the study, and their vital organs were individually observed for gross pathology by necropsy, and the LD50 was calculated by the Bliss method.11, 12

ICR mice = assay: as above; format: in vivo
Method: as §1, §2, §3, §4

[2] = Ex vivo bioconversion of acacetin prodrug in rat liver microsome; format: in vitro ADME; details: 37 °C, n = 3
Method: The ex vivo bioconversion of acacetin prodrug was determined in rat plasma or rat hepatic microsome that contains high content alkaline phosphatase, as described previously[30] and in Supplemental Materials. The in vivo bioconversion of acacetin prodrug was determined in beagle dogs as described in Supplemental Materials. […]
Bioconversion of acacetin prodrug was also determined in rat hepatic microsomes containing high content alkaline phosphatase,5 as described previously.6 Sprague-Dawley rat liver microsomes were purchased from Invitrogen (Hong Kong, China). The reaction mixture was prepared in 50 mM Tris-HCl buffer (pH = 7.4) with 1 mM NADPH (nicotinamide adenine dinucleotide phosphate) and 0.5 mg/mL (total protein) microsomes. Prodrug solutions were added to the microsomes reaction mixture with a final concentration of 5 µg/mL. The reaction solution was incubated in a water bath at 37℃ and shaken at 60 rpm for 1 h. The samples were collected at 0, 1, 2, 15, 30 and 60 min. The reaction was terminated by adding 200 μL cold methanol containing internal standard (pentamethylquercetin, 50 ng/ml). After centrifugation at 12000 g for 30 min, the supernatant was immediately analyzed by HPLC. […]

hERG channels = target: T1, hERG channels (Homo sapiens, UniProt Q12809); assay: hERG current in HEK 293 cells; format: cell-based; details: 30 μM, n = 4, data not shown
T1 construct: expressed in transfected cells; host or cells: HEK 293

QTc interval = assay: ECG QTc interval in anesthetized beagle dogs; format: in vivo; details: for QTc interval after drug administration: at 35 min after administration, P = NS
Method: QTc (corrected QT) interval of ECG was analyzed in anesthetized beagle dogs before and at 35 min after drug administration. QTc interval was not altered (P = NS, before vs. after drug administration) in vehicle animals (n = 5, 273.6 ± 2.6 ms vs. 276.1 ± 4.2 ms) and animals treated with 3 mg/kg (n = 6, 279.5 ± 2.5 ms vs. 282.3 ± 1.7 ms), 6 mg/kg (n = 8, 276.9 ± 2.4 ms vs. 279.1 ± 2.3 ms), or 12 mg/kg (n = 7, 274.1 ± 3.5 ms vs. 278.7 ± 2.9 ms) acacetin prodrug. […]
China) were anesthetized with pentobarbital (40 mg/kg, i.v.), supplemented as necessary during the experiment. The animal was kept on an operation table maintained at 37°C, intubated and ventilated with room air. The left femoral vein was cannulated to maintain fluid balance, anesthesia, and test articles. Lead II electrocardiogram (ECG) was continuously monitored with using a digital recording system (RM6240, Chengdu Instruments, China)
An action potential (MAP) recording- and pacing-catheter (Boston Scientific Ltd) was introduced to the right atrium through right jugular vein, and an electrical pacing catheter was introduced to left ventricle via […] for ventricular pacing (when necessary).
Bilateral cervical vagal nerves were isolated and bipolar electrodes were placed to stimulate efferent vagal nerves with 15 Hz, 0.2 ms duration voltage step (80-100% threshold) to induce a 50% reduction of heart rate. Ventricular pacing was performed with 2-ms voltage pulses (2.5 Hz, 150% diastolic threshold) when vagal nerves were continuously stimulated. […]
Instruments, China). […]

T1 sequence (Q12809 whole entry): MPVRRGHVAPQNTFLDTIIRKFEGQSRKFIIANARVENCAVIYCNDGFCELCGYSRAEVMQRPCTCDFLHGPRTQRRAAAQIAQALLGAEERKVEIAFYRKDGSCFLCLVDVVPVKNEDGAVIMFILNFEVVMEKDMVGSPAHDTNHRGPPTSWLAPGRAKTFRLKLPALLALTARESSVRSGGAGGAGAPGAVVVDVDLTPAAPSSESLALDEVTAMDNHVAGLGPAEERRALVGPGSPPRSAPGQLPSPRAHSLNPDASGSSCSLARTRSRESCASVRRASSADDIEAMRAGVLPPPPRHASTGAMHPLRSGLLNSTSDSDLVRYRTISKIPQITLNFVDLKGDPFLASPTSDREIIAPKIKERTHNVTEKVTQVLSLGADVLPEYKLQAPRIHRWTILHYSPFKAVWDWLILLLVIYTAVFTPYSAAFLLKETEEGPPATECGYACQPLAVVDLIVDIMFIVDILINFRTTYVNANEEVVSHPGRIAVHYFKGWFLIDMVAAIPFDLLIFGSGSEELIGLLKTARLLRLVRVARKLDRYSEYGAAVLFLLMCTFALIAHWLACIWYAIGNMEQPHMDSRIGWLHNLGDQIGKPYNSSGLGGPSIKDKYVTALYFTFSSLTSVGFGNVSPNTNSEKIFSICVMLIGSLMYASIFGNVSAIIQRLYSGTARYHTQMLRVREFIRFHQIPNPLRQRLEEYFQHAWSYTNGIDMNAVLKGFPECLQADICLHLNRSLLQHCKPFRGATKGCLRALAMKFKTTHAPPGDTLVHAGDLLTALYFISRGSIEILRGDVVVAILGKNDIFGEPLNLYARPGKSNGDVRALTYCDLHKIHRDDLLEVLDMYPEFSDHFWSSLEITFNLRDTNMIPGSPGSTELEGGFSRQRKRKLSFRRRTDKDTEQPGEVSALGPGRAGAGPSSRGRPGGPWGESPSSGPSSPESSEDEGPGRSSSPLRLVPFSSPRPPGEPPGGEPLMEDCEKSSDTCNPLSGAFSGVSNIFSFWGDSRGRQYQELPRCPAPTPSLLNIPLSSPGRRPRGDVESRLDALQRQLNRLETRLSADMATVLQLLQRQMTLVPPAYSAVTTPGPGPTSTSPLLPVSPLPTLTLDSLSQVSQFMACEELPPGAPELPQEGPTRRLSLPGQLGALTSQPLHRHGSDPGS

COc1ccc(-c2cc(=O)c3c(O)cc(OP(=O)([O-])[O-])cc3o2)cc1.[Na+].[Na+] [acacetin prodrug, phosphate sodium salt of acacetin]
LD50 at 24 h ([1]; read-out: LD50 with 95% confidence level): 685 to 760 mg/kg
LD50 at 24 h ([1]; intravenous (tail vein), single dose, read-out: LD50): 722 mg/kg
mortality (ICR mice; i.v. dose of 900 mg/kg): all animals died
survival within 24 h (ICR mice; i.v. dose of up to 540 mg/kg): All animals survived
adverse effects or signs of toxicity in the surviving animals (ICR mice; i.v., 24 h observation): No significant adverse effects or signs of toxicity
necropsy of the surviving mice (ICR mice; i.v., end of study): no gross pathological alteration
LD50 (ICR mice; intravenous (tail vein), single dose, Bliss method): 721 mg/kg
prodrug converted into acacetin ([2]; 1 min incubation): 60%
prodrug converted into acacetin ([2]; 30 min incubation): 100%
effect on hERG channels (hERG channels): no such effect
QTc interval after drug administration (QTc interval; 3 mg/kg i.v., n = 6, before 279.5 ± 2.5 ms): 282.3 ± 1.7 ms
QTc interval after drug administration (QTc interval; 6 mg/kg i.v., n = 8, before 276.9 ± 2.4 ms): 279.1 ± 2.3 ms
QTc interval after drug administration (QTc interval; 12 mg/kg i.v., n = 7, before 274.1 ± 3.5 ms): 278.7 ± 2.9 ms
effect on QT interval (QTc interval; 3, 6 and 12 mg/kg i.v., beagle dogs): no effect

From publication PMC4861903, “Synthesis of a highly water-soluble acacetin prodrug for treating experimental atrial fibrillation in beagle dogs” (Scientific Reports, 2016)
